Assay results as given in US20260137697A1, “THIAZOLO[5,4-D]PYRIMIDINE COMPOUNDS, COMPOSITIONS COMPRISING THEM AND USES THEREOF” (University de Montreal, priority 2022, published 2026).
Like-named read-outs stand apart in the source and are kept apart here.

Assays:
Assay type in all cases: cell-based, human
[1] = test system: Calu6 cells; test: Proliferation inhibition, CellTiter-Glo, Calu-6; conditions: Table D-2, Calu6 (KRAS Q61K), 3 days, read-out: Prolif. (proliferation EC50)
Procedure: (§1) All cancer cell lines (A375, A101D, A2058, RKO, HT29 SK-MEL 30, IPC298, HepG2, HCT-116, Lovo, SW620, SW480, NCI-H358, NCI-H2122, Calu-6, NCIH2087, NCIH1755, NCIH1666 and Mewo) were obtained from ATCC and cultured in RPM1-1640 medium (Gibco) supplemented with 5% heat inactivated fetal bovine serum (FBS, Wisent) at 37° C. under 5% CO2. Cells were maintained in T175 flasks (Greiner). They were passaged by removing the culture medium, washing once in 10 mL of room temperature Phosphate Buffered Saline (PBS; Wisent) and incubating at 37° C. with 2 mL of 0.05% Trypsin (Thermo-Fisher). Trypsin was then inactivated by adding complete growth medium and the cells were then replated in a T175 culture dish at the appropriate dilution. All cell lines were routinely tested for mycoplasma contamination. Tissue type and mutational status of each cell line can be found in Table B.
(§2) CellTiter-Glo® viability analysis was conducted on cells plated in 100 μL of complete RPMI-1640 growth medium in 96-well flat-bottomed white opaque plates (Greiner or Croning) at a density indicated in Table E (for each CCL, number of cells plated per well of a 96-well plate to perform the CellTiter-Glo® cell viability assay). The cell density in cells/cm^2 would correspond to cell number divided by the area of one well of a 96-well plate (0.32 cm^2). […]
(§3) After 3 days of incubation, the growth media were removed by aspiration and 60 μL of diluted CellTiter-Glo® reagent (10 μL CellTiter-Glo® reagent+50 μL of PBS) was added to each well. […] Luminescence signals were then acquired on a Synergy Neo2 plate reader (Biotek).
(§4) The effect of each compound dilution on the proliferation of cancer cell lines was expressed in % inhibition and calculated as follows. […]
(§5) The ability of each compound to inhibit proliferation was expressed as a EC50 value obtained by plotting the effect values for each data point of a dilution series and fitting the obtained curves using a log(agonist) versus response—variable slope (four parameters) function using GraphPadPrism (V7.0) or Dotmatics Screening Ultra platform.

[2] = test system: SW620 cells; test: Proliferation inhibition, CellTiter-Glo, SW620; conditions: Table D-2, SW620 (KRAS-G12V), 3 days, read-out: Prolif. (proliferation EC50)
Procedure: as §1, §2, §3, §4, §5

[3] = test system: Mewo cells; test: Proliferation inhibition, CellTiter-Glo, Mewo; conditions: Table D-2, Mewo (NF1 LOF), 3 days, read-out: Prolif. (proliferation EC50)
Procedure: as §1, §2, §3, §4, §5

[4] = test system: SK-MEL30 cells; test: Proliferation inhibition, CellTiter-Glo, SK-MEL30; conditions: Table D-1, SK-MEL30 (NRAS-Q61K), 3 days, read-out: Prolif. (proliferation EC50)
Procedure: as §1, §2, §3, §4, §5

[5] = test system: pERK, NCIH1755 cells; test: Phospho-ERK inhibition, AlphaLISA p-ERK 1/2, NCIH1755; conditions: Table D-2; for IC50: NCIH1755 (BRAF G469A); for pERK value in parentheses, % inhibition (Ymin): NCIH1755, lowest point of IC50 curve
Procedure: as §1
(c) Measurement of Phospho-ERK Inhibition in Cultivated Human Cancer Cell Lines by the AlphaLISA® SureFire® Ultra™ p-ERK 1/2 (Thr2O2/Tyr204)
AlphaLISA® SureFire® Ultra™ p-ERK 1/2 (Thr202/Tyr204) analysis was conducted on cells plated in 100 μL of complete RPMI-1640 growth medium in 96-well flat-bottomed transparent dishes (Costar) at a density indicated in Table C. Cells were maintained overnight at 37° C. under 5% CO2 before treatment with compounds' dilution series for one hour. The cell density in cells/cm^2 corresponds to cell number divided by the area of one well of a 96-well plate (0.143 cm^2).
In a dilution series 100 μL/well of test substance dilution prepared in complete RPMI-1640 growth media was added to the cells. The dilution series is selected so that ten concentrations cover a range from 10 μM to 0.33 nM. If necessary, the initial concentration of 10 μM is increased to 100 μM or lowered to 1 μM (as in the case of A375 and H1666 cells, which are generally more sensitive to the compounds) and further dilution is carried out accordingly. The final concentration of DMSO in the assay is set at 0.5%.
After treatment, media was removed, and cells were lysed in 50 μL of 1× AlphaScreen Ultra Lysis Buffer (Perkin Elmer). The AlphaLISA® SureFire® Ultra™ p-ERK 1/2 (Thr202/Tyr204) (PerkinElmer) reactions were performed with 5 μL of cell lysate according to the manufacturer's specifications in 384-well proxyplates (Perkin Elmer) followed by overnight incubation of the reactions at room temperature in a humidified chamber. After completion of the reactions, the signals were recorded on an EnVision plate reader (Perkin Elmer) using built in AlphaLISA® settings.
The effect of each compound dilution on the pERK signal was expressed in % inhibition and calculated as follows. An internal 100% inhibition control (1 μM trametinib, cat. No. HY-10999; MedChem Express; CAS No. 871700-17-3) was included in each plate and used as a measure of pERK background. First, the value obtained for trametinib was subtracted from each data point. The average of DMSO (vehicle) controls (set as 0% inhibition) was established and used to calculate % inhibition:
as §5, with “pERK signal” for “proliferation”, “an IC50” for “a EC50”, “inhibition” for “effect”
When present, paradoxical pERK induction is inferred from the negative % inhibition values observed in the pERK IC50 curves of a compound.

SMILES | EC50 ([1]; Homo sapiens, Calu-6, 72 h) [nM] | EC50 ([2]; Homo sapiens, SW-620, 72 h) [nM] | EC50 ([3]; Homo sapiens, 72 h) [nM] | EC50 ([4]; Homo sapiens, SK-MEL-30, 72 h) [nM] | IC50 ([5]; Homo sapiens, NCI-H1755) [nM] | pERK value in parentheses, % inhibition (Ymin) [5] | EC50 [1] [nM] | EC50 [2] [nM] | EC50 [3] [nM] | EC50 [4] [nM] | IC50 [5] [nM]
Cc1ccc2c(Nc3cccc(Cl)c3F)nccc2c1NC(=O)c1csc2c(N)ncnc12 [Belvarafenib, reference compound] | < 300 | 300 to 3000 | 300 to 3000 | < 300 | 30 to 300 | (−79) % |  |  |  |  | 
N#CC1(c2cccc3c2ncn3-c2nc3c(Nc4c(F)ccc(NS(=O)(=O)c5cccc(Cl)c5Cl)c4F)ncnc3s2)CC1 [Example 122] |  |  |  |  |  | (11) % | < 300 | < 300 | < 300 | < 300 | < 30
Cc1c(F)cccc1S(=O)(=O)Nc1ccc(F)c(Nc2ncnc3sc(-n4cc(C(=O)N5C6CCC5CN(C)C6)c5ccccc54)nc23)c1F [Example 44] |  |  |  |  |  | (−9) % | < 300 | < 300 | < 300 | < 300 | < 30
